Consider eleven compounds from patent US4321267A, “1-Substituted-4 (1H)-pyridinone hydrazones active against Giardia lamblia and Trichomonas vaginalis” (priority 1980, dated 1982).

≈ marks a conversion by molar mass, not a printed value.

Data set [1] has as its system Giardia lamblia. The data set is described as follows: In vitro anti-Giardia lamblia activity (multiwell culture, viable count by hemacytometer, 24 h). The format is cell-based. Particulars: Giardia duodenalis, 50% inhibition of growth, 37° C., about 16-24 hours, anaerobic, read-out: Anti-G. lamblia ED50. The protocol: (§1) About 1.0-2.0 ml of a nutrient medium, for example, the modified Diamond's (TPS) medium at pH 7.05, together with about 10% by volume of heat-inactivated serum and about 1% by volume of an antibiotic-antimycoticmixture, is placed in each well of a multi-well plate. To this mixture, an aliquot of a suspension of G. lamblia cells containing about 10^6 organism is added. Subsequently, each well is inoculated with a known concentration of one of the pyridinone hydrazones, for example, 1-[(4-chlorophenyl)-4(1H)-pyridinone]-2-[(4-chlorophenyl)methylene]-hydrazone. The multiwell plate containing the individual culture samples is incubated under anaerobic conditions at about 37° C. for about 16-24 hours. The number of viable cells remaining in each well are then counted, such as with a hemocytometer. The percentage of survival is determined by comparison to controls incubated with DMSO (dimethylsulfoxide) and the effective concentration (in parts per million) for 50% inhibition of growth (ED50) is determined. It is established that the lower the ED50 the higher the activity of the 1-substituted-4-(1H)-pyridinone hydrazone tested.
(§2) In each well of a multiwell plate is placed 1.4 ml of Diamond's TPS medium (See Table II) at pH 7.05, 10% by volume of heat-inactivated fetal bovine serium, and 1% by volume of an antibiotic-antimycotic solution (see Table III). A suspension of Giardia lamblia is centrifuged at 2,500 xg for 6 minutes. The pelleted cells are resuspended in a small volume of Diamond's medium, the cells are counted and each well inoculated with approximately 10^6 organisms. A stock solution of 1-[(4-chlorophenyl)-4(1H)-pyridinone]-2-[(4-methylthiophenyl)-methylene]hydrazone in dimethylsulfoxide is made at a concentration of 150 μg/ml. The wells are then inoculated with various concentrations of the drug. The plates are incubated for 24 hours at 37° C. in an anaerobic Gas Pak jar. After 24 hours of incubation, each well is mixed and counted for viable organisms using a hemacytometer. The percentage of survival is determined by comparing the treated wells to controls treated with dimethylsulfoxide.

The conditions of data set [2]: in animals; cited from earlier work.
Data set [3] concerns Trichomonas vaginalis. Particulars: humans; cited from earlier work.
Data set [4] concerns Giardia lamblia. Particulars: humans; cited from earlier work.
Data set [5] deals with Trichomonas vaginalis. The data set is described as follows: In vitro anti-Trichomonas vaginalis activity (method of Example 1). The format is cell-based, T. vaginalis 30001. The settings on record: for IC50: Trichomonas vaginalis, 37° C., 24 hours, read-out: Anti-T. vaginalis ED50; for activity against T. vaginalis (in words): method of Example 1. How it is done: as §1, §2
Employing the method of Example 1, centrifuged cells of T. vaginalis 30001 are incubated with 1-[(4-chlorophenyl)-4(1H)-pyridinone]-2-[(4-methylthiophenyl)methylene]hydrazone at 37° C. for 24 hours.

The conditions of data set [6]: humans; cited from earlier work.

As to `Cc1ncc([N+](=O)[O-])n1CCO` [metronidazole], the IC50 in the data set with Giardia lamblia [1] was 6.2 µg/mL (≈ 36.2 µM); in the data set on Trichomonas vaginalis [5] it was < 1 µg/mL. Also, the carcinogenicity entry in data set [2] was “carcinogenic in animals”. For the same compound, in the data set with Trichomonas vaginalis [3], the therapy of trichomoniasis entry is reported as “Successful therapy of trichomoniasis”. Moreover, in the data set on Giardia lamblia [4], the “treatment of giardiasis infection” value is reported as “successfully treated”.

Regarding `Clc1ccc(-n2ccc(=NN=Cc3ccc(Cl)c(Cl)c3)cc2)cc1` [(4), 1-[(4-chlorophenyl)-4(1H)-pyridinone]-2-[(3,4-dichlorophenyl)methylene]hydrazone], the values for the IC50 in the data set with Giardia lamblia [1] and in the data set on Trichomonas vaginalis [5] were 1.5 µg/mL (≈ 3.98 µM) and 3 µg/mL (≈ 7.96 µM), respectively.

With `Fc1ccc(C=NN=c2ccn(-c3ccc(Cl)cc3)cc2)cc1` [(8), 1-[(4-chlorophenyl)-4(1H)-pyridinone]-2-[(4-fluorophenyl)methylene]hydrazone], the results for the IC50 in the data set on Giardia lamblia [1] and in the data set with Trichomonas vaginalis [5] were 2.25 µg/mL (≈ 6.91 µM) and 4 µg/mL (≈ 12.3 µM), respectively.

With `Clc1ccc(-n2ccc(=NN=Cc3ccc(Br)cc3)cc2)cc1` [(6), 1-[(4-chlorophenyl)-4(1H)-pyridinone]-2-[(4-bromophenyl)methylene]hydrazone], the IC50 is 1.25 µg/mL (≈ 3.23 µM) in the data set on Giardia lamblia [1] and 3.63 µg/mL (≈ 9.39 µM) in the data set on Trichomonas vaginalis [5].

For the compound `N#Cc1ccc(C=NN=c2ccn(-c3ccc(Cl)cc3)cc2)cc1` [(2), 1-[(4-chlorophenyl)-4(1H)-pyridinone]-2-[(4-cyanophenyl)methylene]hydrazone], in the data set with Giardia lamblia [1], the IC50 turned out to be 2.25 µg/mL (≈ 6.76 µM). In the data set on Trichomonas vaginalis [5], the IC50 came out at 3.3 µg/mL (≈ 9.92 µM) and the “activity against T. vaginalis (in words)” value is “active against T. vaginalis”.

With `FC(F)(F)c1ccc(C=NN=c2ccn(-c3ccc(Cl)cc3)cc2)cc1` [(5), 1-[(4-chlorophenyl)-4(1H)-pyridinone]-2-[(4-trifluoromethylphenyl)methylene]hydrazone], the values for the IC50 in the data set on Giardia lamblia [1] and in the data set on Trichomonas vaginalis [5] were 1.42 µg/mL (≈ 3.78 µM) and 3.25 µg/mL (≈ 8.65 µM), respectively.

Consider `Clc1ccc(-n2ccc(=NN=Cc3ccc(Cl)cc3Cl)cc2)cc1` [(7)], for which the IC50 with Giardia lamblia [1] came to 1.2 µg/mL (≈ 3.19 µM); with Trichomonas vaginalis [5], 1.75 µg/mL (≈ 4.65 µM).

Consider `CSc1ccc(C=NN=c2ccn(-c3ccc(Cl)cc3)cc2)cc1` [(3), 1-[(4-chlorophenyl)-4(1H)-pyridinone]-2-[(4-methylthiophenyl)methylene]hydrazone], for which the IC50 in the data set with Giardia lamblia [1] was 1.1 µg/mL (≈ 3.11 µM). For the same compound, in the data set on Trichomonas vaginalis [5], the IC50 came out at 2.88 µg/mL (≈ 8.14 µM) and the “activity against T. vaginalis (in words)” value was “effective anti-T. vaginalis agent”.

In the case of `CCN(CC)CCCC(C)Nc1c2ccc(Cl)cc2nc2ccc(OC)cc12` (stereo not drawn) [Atabrine], the “treatment of giardiasis infection” value in the data set with Giardia lamblia [4] is “successfully treated”.

With `Clc1ccc(C=NN=c2ccn(-c3ccc(Cl)cc3)cc2)cc1` [(1), 1-[(4-chlorophenyl)-4(1H)-pyridinone]-2-[(4-chlorophenyl)methylene]hydrazone], in the data set on Giardia lamblia [1], the IC50 was 1.45 µg/mL (≈ 4.24 µM). In the data set on Trichomonas vaginalis [5], the IC50 was 2.63 µg/mL (≈ 7.68 µM) and the “activity against T. vaginalis (in words)” value is listed as “active against T. vaginalis”.

In the case of `O=C1OCCN1/N=C/c1ccc([N+](=O)[O-])o1` [furazolidone], the adverse side effects entry in data set [6] is reported as “adverse side effects”. Also, the “treatment of giardiasis infection” value in the data set on Giardia lamblia [4] is on record as “successfully treated”.
